Data taken from ChEMBL document CHEMBL4507294, “Data for DCP probe MSD-CYP11B2” (2021).
pKi: −log10 of the molar value.

Assays:
[1] = target: RAC-alpha serine/threonine-protein kinase (Homo sapiens) (UniProt P31749); conditions: Compound concentration 1000.0 nM
[2] = target: Mitotic checkpoint serine/threonine-protein kinase BUB1 (Homo sapiens) (UniProt O43683); conditions: Compound concentration 1000.0 nM
[3] = target: Ephrin type-A receptor 2 (Homo sapiens) (UniProt P29317); conditions: Compound concentration 1000.0 nM
[4] = target: Citron Rho-interacting kinase (Homo sapiens) (UniProt O14578); conditions: Compound concentration 1000.0 nM
[5] = target: Mitogen-activated protein kinase 10 (Homo sapiens) (UniProt P53779); conditions: Compound concentration 1000.0 nM
[6] = target: Tyrosine-protein kinase Lck (Homo sapiens) (UniProt P06239); conditions: Compound concentration 1000.0 nM
Tyrosine-protein kinase Lck (Homo sapiens), sequence (P06239 2-509 limits assumed): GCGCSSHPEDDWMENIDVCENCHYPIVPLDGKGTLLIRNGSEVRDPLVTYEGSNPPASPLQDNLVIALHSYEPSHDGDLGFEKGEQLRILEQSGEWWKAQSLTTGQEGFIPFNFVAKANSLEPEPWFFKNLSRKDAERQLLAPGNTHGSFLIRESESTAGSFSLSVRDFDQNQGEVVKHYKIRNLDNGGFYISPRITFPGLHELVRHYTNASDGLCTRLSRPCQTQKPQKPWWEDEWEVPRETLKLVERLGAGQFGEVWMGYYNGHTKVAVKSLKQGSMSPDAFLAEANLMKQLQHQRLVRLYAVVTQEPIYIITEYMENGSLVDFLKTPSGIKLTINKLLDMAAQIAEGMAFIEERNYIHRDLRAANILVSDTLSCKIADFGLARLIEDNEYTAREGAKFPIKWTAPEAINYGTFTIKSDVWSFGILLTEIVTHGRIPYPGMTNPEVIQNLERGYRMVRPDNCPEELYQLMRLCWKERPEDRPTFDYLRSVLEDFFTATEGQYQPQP

[7] = target: Cyclin-dependent kinase 19 (Homo sapiens) (UniProt Q9BWU1); conditions: Compound concentration 1000.0 nM
[8] = target: Glycogen synthase kinase-3 beta (Homo sapiens) (UniProt P49841); conditions: Compound concentration 1000.0 nM
Glycogen synthase kinase-3 beta (Homo sapiens), sequence (P49841 whole entry, looked up): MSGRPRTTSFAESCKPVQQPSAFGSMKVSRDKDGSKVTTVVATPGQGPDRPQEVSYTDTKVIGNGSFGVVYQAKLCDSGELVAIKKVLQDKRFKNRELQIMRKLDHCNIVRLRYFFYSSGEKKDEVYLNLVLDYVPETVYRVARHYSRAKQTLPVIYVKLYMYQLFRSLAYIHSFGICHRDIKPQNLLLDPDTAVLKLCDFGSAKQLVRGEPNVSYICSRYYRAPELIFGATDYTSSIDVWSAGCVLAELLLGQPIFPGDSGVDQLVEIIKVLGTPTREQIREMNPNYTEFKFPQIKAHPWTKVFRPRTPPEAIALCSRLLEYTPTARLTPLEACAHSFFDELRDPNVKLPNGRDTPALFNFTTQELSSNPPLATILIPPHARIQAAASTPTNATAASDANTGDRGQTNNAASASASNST

[9] = target: Atypical kinase COQ8A, mitochondrial (Homo sapiens) (UniProt Q8NI60); conditions: Compound concentration 1000.0 nM
[10] = target: Fibroblast growth factor receptor 1 (Homo sapiens) (UniProt P11362); conditions: Compound concentration 1000.0 nM
[11] = target: Tyrosine-protein kinase ITK/TSK (Homo sapiens) (UniProt Q08881); conditions: Compound concentration 1000.0 nM
[12] = target: 5-hydroxytryptamine receptor 2B (Homo sapiens, UniProt P41595); assay: GPCRScan assay: inhibition of 5-HT2B; design: radioligand conc. used [nm] 1.0 – 2.0, parental cells stable HEK
5-hydroxytryptamine receptor 2B, sequence (P41595 whole entry): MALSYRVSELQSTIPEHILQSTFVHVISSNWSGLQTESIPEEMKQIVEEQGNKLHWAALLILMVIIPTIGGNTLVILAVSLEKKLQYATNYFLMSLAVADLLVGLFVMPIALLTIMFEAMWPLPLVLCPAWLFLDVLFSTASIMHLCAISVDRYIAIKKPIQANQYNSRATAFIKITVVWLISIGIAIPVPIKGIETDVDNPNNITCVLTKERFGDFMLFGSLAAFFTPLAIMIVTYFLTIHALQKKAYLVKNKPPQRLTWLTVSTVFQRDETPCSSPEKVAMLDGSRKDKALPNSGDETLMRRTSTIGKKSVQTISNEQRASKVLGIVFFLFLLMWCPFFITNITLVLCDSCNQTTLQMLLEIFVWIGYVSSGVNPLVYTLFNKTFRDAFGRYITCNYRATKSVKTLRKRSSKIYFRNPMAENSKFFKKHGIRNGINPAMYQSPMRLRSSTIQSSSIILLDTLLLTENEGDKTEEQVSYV

[13] = target: Mast/stem cell growth factor receptor Kit (Homo sapiens) (UniProt P10721); conditions: Compound concentration 1000.0 nM
[14] = target: Histamine H1 receptor (Homo sapiens) (UniProt P35367); conditions: Compound concentration 10.0 uM
Histamine H1 receptor (Homo sapiens), sequence (P35367 whole entry): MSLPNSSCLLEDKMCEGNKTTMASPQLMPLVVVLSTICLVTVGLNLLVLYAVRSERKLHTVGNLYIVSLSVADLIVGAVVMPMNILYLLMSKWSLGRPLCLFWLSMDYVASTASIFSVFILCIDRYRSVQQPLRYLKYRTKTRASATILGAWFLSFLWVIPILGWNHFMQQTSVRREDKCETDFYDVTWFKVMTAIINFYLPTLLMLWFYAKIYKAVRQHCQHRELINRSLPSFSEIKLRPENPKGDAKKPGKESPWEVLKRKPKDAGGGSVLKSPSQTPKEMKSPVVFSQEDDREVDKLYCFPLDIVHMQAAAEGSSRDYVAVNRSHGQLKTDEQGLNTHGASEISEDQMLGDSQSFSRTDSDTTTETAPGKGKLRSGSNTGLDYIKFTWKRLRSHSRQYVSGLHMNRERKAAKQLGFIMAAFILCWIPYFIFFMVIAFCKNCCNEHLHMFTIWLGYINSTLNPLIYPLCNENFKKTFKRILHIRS

[15] = target: RAC-beta serine/threonine-protein kinase (Homo sapiens) (UniProt P31751); conditions: Compound concentration 1000.0 nM
[16] = target: Casein kinase I isoform alpha (Homo sapiens) (UniProt P48729); conditions: Compound concentration 1000.0 nM
Casein kinase I isoform alpha (Homo sapiens), sequence (P48729 2-337 limits assumed): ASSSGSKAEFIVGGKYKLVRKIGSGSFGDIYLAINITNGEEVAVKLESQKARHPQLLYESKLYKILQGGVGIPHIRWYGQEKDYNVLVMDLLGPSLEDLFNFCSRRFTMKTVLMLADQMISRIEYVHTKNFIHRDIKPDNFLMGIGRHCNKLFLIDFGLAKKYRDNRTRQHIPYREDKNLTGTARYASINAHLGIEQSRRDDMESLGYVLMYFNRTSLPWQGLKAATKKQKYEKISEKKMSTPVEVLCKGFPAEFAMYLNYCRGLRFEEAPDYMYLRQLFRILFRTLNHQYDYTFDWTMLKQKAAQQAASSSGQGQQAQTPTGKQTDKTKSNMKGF

[17] = target: Muscarinic acetylcholine receptor M5 (Homo sapiens) (UniProt P08912); conditions: Compound concentration 10.0 uM
[18] = target: T1, Alpha-2B adrenergic receptor (Homo sapiens) (UniProt P18089); conditions: Compound concentration 10.0 uM
T1 sequence (whole entry): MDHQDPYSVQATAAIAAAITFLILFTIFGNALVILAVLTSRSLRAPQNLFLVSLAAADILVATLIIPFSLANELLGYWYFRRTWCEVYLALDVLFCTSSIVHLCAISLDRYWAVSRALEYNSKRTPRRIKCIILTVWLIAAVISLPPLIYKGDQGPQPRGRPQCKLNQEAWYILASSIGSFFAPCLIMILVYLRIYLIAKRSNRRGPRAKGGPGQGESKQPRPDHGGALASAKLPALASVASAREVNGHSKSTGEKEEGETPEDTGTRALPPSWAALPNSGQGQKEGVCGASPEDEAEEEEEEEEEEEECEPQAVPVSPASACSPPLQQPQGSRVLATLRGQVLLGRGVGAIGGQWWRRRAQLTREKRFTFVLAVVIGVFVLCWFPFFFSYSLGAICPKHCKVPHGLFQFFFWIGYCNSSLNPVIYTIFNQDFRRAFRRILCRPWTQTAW

[19] = target: BDNF/NT-3 growth factors receptor (Homo sapiens) (UniProt Q16620); conditions: Compound concentration 1000.0 nM
[20] = target: Tyrosine-protein kinase receptor TYRO3 (Homo sapiens) (UniProt Q06418); conditions: Compound concentration 1000.0 nM
[21] = target: Macrophage colony-stimulating factor 1 receptor (Homo sapiens) (UniProt P07333); conditions: Compound concentration 1000.0 nM
[22] = target: 5-hydroxytryptamine receptor 1D (Homo sapiens) (UniProt P28221); conditions: Compound concentration 10.0 uM
[23] = target: Tyrosine-protein kinase JAK1 (Homo sapiens) (UniProt P23458); conditions: Compound concentration 1000.0 nM
[24] = target: Serine/threonine-protein kinase tousled-like 2 (Homo sapiens) (UniProt Q86UE8); conditions: Compound concentration 1000.0 nM
[25] = target: Ribosomal protein S6 kinase alpha-1 (Homo sapiens) (UniProt Q15418); conditions: Compound concentration 1000.0 nM
[26] = test system: Tyrosine-protein kinase ABL1 (Homo sapiens), P00519 [F317I]; conditions: Compound concentration 1000.0 nM
[27] = target: Serine/threonine-protein kinase MRCK alpha (Homo sapiens) (UniProt Q5VT25); conditions: Compound concentration 1000.0 nM
[28] = target: Serine/threonine-protein kinase MAK (Homo sapiens) (UniProt P20794); conditions: Compound concentration 1000.0 nM
[29] = target: Cyclin-dependent kinase 15 (Homo sapiens) (UniProt Q96Q40); conditions: Compound concentration 1000.0 nM
Cyclin-dependent kinase 15 (Homo sapiens), sequence (Q96Q40 whole entry): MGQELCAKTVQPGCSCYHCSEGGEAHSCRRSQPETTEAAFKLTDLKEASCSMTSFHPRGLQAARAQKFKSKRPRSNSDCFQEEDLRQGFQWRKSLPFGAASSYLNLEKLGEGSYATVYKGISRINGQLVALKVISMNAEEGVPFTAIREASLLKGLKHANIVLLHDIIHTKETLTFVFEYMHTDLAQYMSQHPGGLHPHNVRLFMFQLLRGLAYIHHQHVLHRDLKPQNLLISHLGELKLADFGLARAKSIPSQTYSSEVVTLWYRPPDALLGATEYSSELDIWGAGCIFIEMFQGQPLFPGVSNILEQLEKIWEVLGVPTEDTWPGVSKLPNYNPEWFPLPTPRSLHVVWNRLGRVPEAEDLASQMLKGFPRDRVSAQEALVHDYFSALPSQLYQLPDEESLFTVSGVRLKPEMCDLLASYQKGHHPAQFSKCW

[30] = target: Serine/threonine-protein kinase N2 (Homo sapiens) (UniProt Q16513); conditions: Compound concentration 1000.0 nM
Serine/threonine-protein kinase N2 (Homo sapiens), sequence (Q16513 whole entry, looked up): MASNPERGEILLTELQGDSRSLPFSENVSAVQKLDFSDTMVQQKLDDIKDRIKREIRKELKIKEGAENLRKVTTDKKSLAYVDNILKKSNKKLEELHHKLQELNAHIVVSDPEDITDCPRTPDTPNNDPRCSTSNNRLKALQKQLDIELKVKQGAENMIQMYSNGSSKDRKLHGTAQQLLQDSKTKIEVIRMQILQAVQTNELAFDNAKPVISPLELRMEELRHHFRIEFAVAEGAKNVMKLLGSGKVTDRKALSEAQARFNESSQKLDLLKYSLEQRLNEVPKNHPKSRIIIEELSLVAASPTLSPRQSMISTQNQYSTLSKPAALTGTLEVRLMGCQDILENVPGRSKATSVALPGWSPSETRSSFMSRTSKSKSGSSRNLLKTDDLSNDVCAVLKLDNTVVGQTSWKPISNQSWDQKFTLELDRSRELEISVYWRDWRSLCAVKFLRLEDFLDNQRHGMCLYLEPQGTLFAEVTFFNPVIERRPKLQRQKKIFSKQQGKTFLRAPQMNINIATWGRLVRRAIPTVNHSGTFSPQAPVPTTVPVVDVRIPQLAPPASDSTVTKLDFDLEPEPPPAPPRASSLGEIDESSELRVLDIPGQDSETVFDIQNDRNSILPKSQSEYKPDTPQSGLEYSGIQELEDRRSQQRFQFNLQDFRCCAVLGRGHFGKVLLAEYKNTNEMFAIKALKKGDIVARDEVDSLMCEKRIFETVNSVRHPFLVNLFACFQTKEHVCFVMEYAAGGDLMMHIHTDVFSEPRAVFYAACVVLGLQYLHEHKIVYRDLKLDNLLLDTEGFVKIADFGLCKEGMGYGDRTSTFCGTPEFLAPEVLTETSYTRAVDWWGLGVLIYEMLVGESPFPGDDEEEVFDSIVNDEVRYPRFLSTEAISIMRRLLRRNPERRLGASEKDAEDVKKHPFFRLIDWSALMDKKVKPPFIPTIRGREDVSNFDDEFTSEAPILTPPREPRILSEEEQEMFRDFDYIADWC

[31] = test system: Tyrosine-protein kinase ABL1 (Homo sapiens), P00519 [H396P]; conditions: Compound concentration 1000.0 nM
[32] = target: Hormonally up-regulated neu tumor-associated kinase (Homo sapiens) (UniProt P57058); conditions: Compound concentration 1000.0 nM
Hormonally up-regulated neu tumor-associated kinase (Homo sapiens), sequence (P57058 whole entry): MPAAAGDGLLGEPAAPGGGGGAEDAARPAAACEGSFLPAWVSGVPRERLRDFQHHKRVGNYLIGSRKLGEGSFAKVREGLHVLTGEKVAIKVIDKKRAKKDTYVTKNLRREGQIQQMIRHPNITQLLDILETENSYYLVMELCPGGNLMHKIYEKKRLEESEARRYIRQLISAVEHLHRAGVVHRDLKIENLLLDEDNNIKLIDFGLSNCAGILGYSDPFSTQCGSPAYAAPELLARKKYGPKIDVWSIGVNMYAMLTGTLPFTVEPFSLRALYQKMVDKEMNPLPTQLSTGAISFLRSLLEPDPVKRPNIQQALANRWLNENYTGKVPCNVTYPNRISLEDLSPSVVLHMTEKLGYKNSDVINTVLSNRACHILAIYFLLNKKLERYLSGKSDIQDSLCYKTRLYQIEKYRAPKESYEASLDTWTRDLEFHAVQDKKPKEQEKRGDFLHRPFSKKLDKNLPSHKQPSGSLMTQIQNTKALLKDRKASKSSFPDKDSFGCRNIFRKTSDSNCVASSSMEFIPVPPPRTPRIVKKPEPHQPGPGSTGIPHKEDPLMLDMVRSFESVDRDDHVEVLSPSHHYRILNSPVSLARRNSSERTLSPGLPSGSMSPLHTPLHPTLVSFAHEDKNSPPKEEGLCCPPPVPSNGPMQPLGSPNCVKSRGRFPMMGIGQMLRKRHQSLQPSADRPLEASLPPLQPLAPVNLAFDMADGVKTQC

[33] = target: Kappa-type opioid receptor (Homo sapiens) (UniProt P41145); conditions: Compound concentration 10.0 uM
[34] = target: MAP kinase-activated protein kinase 2 (Homo sapiens) (UniProt P49137); conditions: Compound concentration 1000.0 nM
[35] = target: Calcium/calmodulin-dependent protein kinase type II subunit delta (Homo sapiens) (UniProt Q13557); conditions: Compound concentration 1000.0 nM
[36] = test system: Epidermal growth factor receptor (Homo sapiens), P00533 [UNDEFINED MUTATION]; conditions: Compound concentration 1000.0 nM
[37] = target: Serine/threonine-protein kinase PLK3 (Homo sapiens) (UniProt Q9H4B4); conditions: Compound concentration 1000.0 nM
[38] = target: Serine/threonine-protein kinase haspin (Homo sapiens) (UniProt Q8TF76); conditions: Compound concentration 1000.0 nM
[39] = target: Serine/threonine-protein kinase VRK2 (Homo sapiens) (UniProt Q86Y07); conditions: Compound concentration 1000.0 nM
Serine/threonine-protein kinase VRK2 (Homo sapiens), sequence (Q86Y07 whole entry): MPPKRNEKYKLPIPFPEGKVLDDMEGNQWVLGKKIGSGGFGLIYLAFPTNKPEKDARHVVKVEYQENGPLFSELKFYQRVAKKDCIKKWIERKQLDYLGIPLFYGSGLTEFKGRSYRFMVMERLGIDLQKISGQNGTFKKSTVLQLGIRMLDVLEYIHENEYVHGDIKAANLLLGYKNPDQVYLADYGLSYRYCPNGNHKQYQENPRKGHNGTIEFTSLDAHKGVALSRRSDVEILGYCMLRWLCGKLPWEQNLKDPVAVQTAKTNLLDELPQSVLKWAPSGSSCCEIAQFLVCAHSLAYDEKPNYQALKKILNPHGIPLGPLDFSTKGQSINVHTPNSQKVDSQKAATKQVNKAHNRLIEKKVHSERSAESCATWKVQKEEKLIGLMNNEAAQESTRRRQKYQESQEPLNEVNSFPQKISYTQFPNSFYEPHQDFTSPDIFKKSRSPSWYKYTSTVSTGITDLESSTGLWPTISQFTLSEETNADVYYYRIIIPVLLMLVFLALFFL

Row | Structure (SMILES) | residual activity [1] | residual activity [2] | residual activity [3] | residual activity [4] | residual activity [5] | residual activity [6] | residual activity [7] | residual activity [8] | residual activity [9] | residual activity [10] | residual activity [11] | pKi [12] | residual activity [13] | inhibition [14] | residual activity [15] | residual activity [16] | inhibition [17] | inhibition [18] | residual activity [19] | residual activity [20] | further results
1 | CC(C)(O)c1cncc(-c2nc3ccc(F)cc3n2C2CC2)c1 [MSD-CYP11B2] | 100% | 99% | 100% | 100% | 100% | 100% | 94% | 100% | 100% | 100% | 100% | 5.81 | 100% | 9.54% | 84% | 84% | -2.81% | 76.4% | 100% | 100% | residual activity [21]: 99%; inhibition [22]: 0.75%; residual activity [23]: 100%; residual activity [24]: 100%; residual activity [25]: 100%; residual activity [26]: 100%; residual activity [27]: 100%; residual activity [28]: 100%; residual activity [29]: 84%; residual activity [30]: 100%; residual activity [31]: 85%; residual activity [32]: 100%; inhibition [33]: -8.65%; residual activity [34]: 100%; residual activity [35]: 100%; residual activity [36]: 100%; residual activity [37]: 100%; residual activity [38]: 83%; residual activity [39]: 100%
2 | FC(F)(F)c1ccc2c(c1)nc(-c1cccnc1)n2C1CC1 [MSD-CYP11B2-Negative-control] | 100% | 89% | 100% | 100% | 100% | 100% | 100% | 100% | 100% | 100% | 100% | 5.97 | 100% | 9.49% | 100% | 90% | -6.15% | 43.3% | 100% | 100% | residual activity [21]: 100%; inhibition [22]: 6.79%; residual activity [23]: 100%; residual activity [24]: 100%; residual activity [25]: 100%; residual activity [26]: 100%; residual activity [27]: 100%; residual activity [28]: 100%; residual activity [29]: 100%; residual activity [30]: 100%; residual activity [31]: 82%; residual activity [32]: 100%; inhibition [33]: -1.84%; residual activity [34]: 100%; residual activity [35]: 100%; residual activity [36]: 87%; residual activity [37]: 100%; residual activity [38]: 96%; residual activity [39]: 100%
